Assay results from patent publication US20250288573A1 (H. LEE MOFFITT CANCER CENTER AND RESEARCH INSTITUTE, INC., priority 2018, published 2025).
Where two headings read alike, the source gives them in different places.

Assays:
cereblon = biological target: T1, cereblon (Mus musculus, UniProt Q8C7D2); test: Western blot of cereblon in splenic T cells / splenocytes of mice treated orally with a single dose; format: in vivo; details: single oral dose of 75 mg/kg
T1 construct: from tissue; host or cells: spleen: purified splenic T cells and total splenocytes of treated mice
T1 sequence (Q8C7D2 1-445): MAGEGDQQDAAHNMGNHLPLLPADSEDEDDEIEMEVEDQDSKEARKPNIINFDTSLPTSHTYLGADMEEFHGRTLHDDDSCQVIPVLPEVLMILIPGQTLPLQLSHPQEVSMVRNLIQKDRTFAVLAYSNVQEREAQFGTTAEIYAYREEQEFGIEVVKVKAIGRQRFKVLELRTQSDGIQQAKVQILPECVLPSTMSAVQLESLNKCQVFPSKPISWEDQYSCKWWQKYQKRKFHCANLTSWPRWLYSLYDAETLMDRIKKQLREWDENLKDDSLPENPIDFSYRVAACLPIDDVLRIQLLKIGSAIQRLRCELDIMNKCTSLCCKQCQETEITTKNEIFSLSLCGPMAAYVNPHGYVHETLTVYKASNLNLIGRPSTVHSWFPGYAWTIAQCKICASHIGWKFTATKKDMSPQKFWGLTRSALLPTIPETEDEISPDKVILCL
Procedure: FIG. 24 is a graph of results from Western blots from purified splenic T cells of mice treated orally with a single dose of 75 mg/kg SM2-145. Three mice were obtained from each time point (1, 6, 12, and 24 hrs) after treatment.
FIG. 25 contains a Western blot analysis of purified T cells from mice treated orally with a single dose of 75 mg/kg EC2-035 and EC2-134.

CRBN = biological target: T2, CRBN (Homo sapiens, UniProt Q96SW2); test: Western blot for expression of CRBN relative to vinculin in human T cells (CRBN degradation); format: cell-based; details: for remaining activity at 10 µM / remaining activity at 0.01 µM: read-out: Relative Density of CRBN (% of DMSO); for remaining activity at 0.01 µM: 10nM
T2 construct: endogenous in cells; host or cells: primary human T cells / CD8+ T cells from peripheral blood
T2 sequence (Q96SW2 whole entry): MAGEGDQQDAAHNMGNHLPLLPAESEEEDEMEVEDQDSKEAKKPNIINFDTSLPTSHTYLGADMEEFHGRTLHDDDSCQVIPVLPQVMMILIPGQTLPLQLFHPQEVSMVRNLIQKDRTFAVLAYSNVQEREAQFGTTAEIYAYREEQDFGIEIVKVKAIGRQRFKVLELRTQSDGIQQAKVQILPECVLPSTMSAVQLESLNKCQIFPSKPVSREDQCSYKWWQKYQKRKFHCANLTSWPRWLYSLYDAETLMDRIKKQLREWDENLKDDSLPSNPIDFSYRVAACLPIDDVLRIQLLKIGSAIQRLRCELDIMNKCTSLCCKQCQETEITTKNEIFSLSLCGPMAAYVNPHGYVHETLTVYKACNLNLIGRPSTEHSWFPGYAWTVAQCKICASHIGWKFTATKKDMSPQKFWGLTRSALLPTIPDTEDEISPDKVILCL
Excerpt: Bortez=bortezomib; MG132=proteasome inhibitor; MLN4924=NEDD8 inhibitor.
This assay is a standard Western blot assay for expression of CRBN relative to vinculin.
[…] 0.1 percent DMSO was used as a vehicle control.

cereblon (CRBN) [1] = biological target: T3, cereblon (CRBN) (Homo sapiens, UniProt Q96SW2); test: Kd from ITC; format: binding
T3 sequence (Q96SW2 whole entry, species assumed): as the sequence (Q96SW2 whole entry) above

cereblon (CRBN) [2] = biological target: T3, cereblon (CRBN); test: Kd and % inhibition from FI; format: binding; details: for inhibition at 200 µM: read-out: % inhibition @ 200 uM from *FI
cereblon (CRBN) [3] = biological target: T4, cereblon (CRBN) (Mus musculus, UniProt Q8C7D2); test: Western blot of cereblon (CRBN) levels in mouse CD8+ T cells; format: cell-based; details: 24 hours of treatment
T4 construct: endogenous in cells; host or cells: mouse CD8+ T cells
T4 sequence (Q8C7D2 1-445): T1 sequence (Q8C7D2 1-445)

c-Myc = test: Western blot of c-Myc in activated human T cells; format: cell-based; details: human T cells activated by anti-CD3ε/anti-CD28
Excerpt: (§1) On the right is a schematic diagram of CRBN/DDB1/CUL4A and ubiquitin degrading function. […] DMSO was used in these experiments as a vehicle control. […] CRBN is shown for human T cells and vinculin loading control of human and mouse T cells are provided. […] Results shown are representative of three independent experiments.

BRD4 = biological target: T5, BRD4 (Mus musculus, UniProt Q9ESU6); test: Western blot of BRD4 in activated mouse T cells; format: cell-based; details: mouse T cells activated with anti-CD3ε/anti-CD28
T5 construct: endogenous in cells
Excerpt: as §1

[4] = FI, read-out: Kd (FI) (converted)
[5] = cell does not state FI or ITC, read-out: Kd (A) FI/ITC

| remaining activity at 10 µM (CRBN) | remaining activity at 0.01 µM (CRBN; 24 h, human T cells, 24 hours) | Kd (cereblon (CRBN) [2]; [4]) | inhibition at 200 µM (cereblon (CRBN) [2]) | SMILES | other results |
| --- | --- | --- | --- | --- | --- |
| 99.7% | 2.32% | – | – | O=C1CCC(N2Cc3c(NCc4ccc(CNc5cccc6c5CN(C5CCC(=O)NC5=O)C6=O)cc4)cccc3C2=O)C(=O)N1 (stereo not shown) [EC2-035, 3,3′-(((1,4-Phenylenebis(methylene))bis(azanediyl))bis(1-oxoisoindoline-4,2-diyl))bis(piperidine-2,6-dione)] | cereblon levels in purified splenic T cells (cereblon): sustained reduction in cereblon levels at 6, 9 and 12 hours |
| 3.05% | 24.1% | 5.88 µM | 73.9 ± 14.9% | O=C1CCC(N2Cc3c(CCCOCCCc4cccc5c4CN(C4CCC(=O)NC4=O)C5=O)cccc3C2=O)C(=O)N1 (stereo not shown) [SM2-144, 3,3′-((Oxybis(propane-3,1-diyl))bis(1-oxoisoindoline-4,2-diyl))bis(piperidine-2,6-dione)] | Kd (cereblon (CRBN) [1]): 4.4 ± 1.4 µM |
| 15.8% | 99.5% | 11.3 µM | 68.2 ± 3.33% | O=C(COc1cccc2c1C(=O)N(C1CCC(=O)NC1=O)C2=O)NCCOCCOCCNC(=O)COc1cccc2c1C(=O)N(C1CCC(=O)NC1=O)C2=O (stereo not shown) [SM2-048] | Kd (cereblon (CRBN) [1]): 12.3 ± 0.4 µM; CRBN expression (Western blot) (CRBN; anti-CD3/anti-CD28 stimulated human T cells, 0.1, 1, and 10 μM): significant reduction in CRBN expression |
| – | – | – | – | COCCOCCCc1cccc2c1CN(C1CCC(=O)NC1=O)C2=O (stereo not shown) [SM3-095, 3-(4-(3-(2-Methoxyethoxy)propyl)-1-oxoisoindolin-2-yl)piperidine-2,6-dione] | cereblon (CRBN) levels (Western blot) (cereblon (CRBN) [3]): not |
| 19.4% | 44.3% | 9.38 ± 0.59 µM | 79.6 ± 3.13% | O=C1CCC(N2Cc3c(CCCOCCOCCOCCOCCCc4cccc5c4CN(C4CCC(=O)NC4=O)C5=O)cccc3C2=O)C(=O)N1 (stereo not shown) [SM2-139, 3,3′-((4,7,10,13-Tetraoxahexadecane-1,16-diyl)bis(1-oxoisoindoline-4,2-diyl))bis(piperidine-2,6-dione)] | – |
| 33.4% | 56.8% | 11.2 ± 0.53 µM | 79.5 ± 2.29% | O=C1CCC(N2Cc3c(CCCOCCOCCOCCOCCOCCCc4cccc5c4CN(C4CCC(=O)NC4=O)C5=O)cccc3C2=O)C(=O)N1 (stereo not shown) [SM2-156, 3,3′-((4,7,10,13,16-Pentaoxanonadecane-1,19-diyl)bis(1-oxoisoindoline-4,2-diyl))bis(piperidine-2,6-dione)] | – |
| 10.3% | 119% | – | – | O=C1CCC(N2C(=O)c3cccc(NC(=O)[C@H]4CC[C@@H](C(=O)Nc5cccc6c5C(=O)N(C5CCC(=O)NC5=O)C6=O)CC4)c3C2=O)C(=O)N1 (stereo partly drawn) [EC1-133, (cis)-N^1,N^4-bis(2-(2,6-Dioxopiperidin-3-yl)-1,3-dioxoisoindolin-4-yl)cyclohexane-1,4-dicarboxamide] | % inhibition @ 200 uM from *FI (cereblon (CRBN) [2]): n.b. |
| 6.33% | 99.3% | 18.3 ± 1.54 µM | 57.2 ± 10% | O=C1CCC(N2Cc3c(NC(=O)CCCCCCC(=O)Nc4cccc5c4CN(C4CCC(=O)NC4=O)C5=O)cccc3C2=O)C(=O)N1 (stereo not shown) [EC1-150, N^1,N^8-Bis(2-(2,6-dioxopiperidin-3-yl)-1-oxoisoindolin-4-yl)octanediamide] | – |
| 86.9% | 119% | 14.3 ± 0.52 µM | 72.4 ± 0.84% | O=C(CCc1cccc2c1CN(C1CCC(=O)NC1=O)C2=O)NCCOCCNC(=O)CCc1cccc2c1CN(C1CCC(=O)NC1=O)C2=O (stereo not shown) [SM3-010, N,N′-(Oxybis(ethane-2,1-diyl))bis(3-(2-(2,6-dioxopiperidin-3-yl)-1-oxoisoindolin-4-yl)propanamide)] | – |
| 6.19% | 29.8% | – | – | O=C1CCC(N2C(=O)c3cccc(NC(=O)CCCCCCCC(=O)Nc4cccc5c4C(=O)N(C4CCC(=O)NC4=O)C5=O)c3C2=O)C(=O)N1 (stereo not shown) | % inhibition @ 200 uM from *FI (cereblon (CRBN) [2]): n.b |
| 85.4% | 102% | 14.8 ± 1.08 µM | 73.39 ± 0.71% | O=C(CCc1cccc2c1CN(C1CCC(=O)NC1=O)C2=O)NCCOCCOCCOCCNC(=O)CCc1cccc2c1CN(C1CCC(=O)NC1=O)C2=O (stereo not shown) [SM3-011, N,N′-(((Oxybis(ethane-2,1-diyl))bis(oxy))bis(ethane-2,1-diyl))bis(3-(2-(2,6-dioxopiperidin-3-yl)-1-oxoisoindolin-4-yl)propanamide)] | – |
| – | – | – | – | Cc1sc2c(c1C)C(c1ccc(Cl)cc1)=N[C@@H](CC(=O)OC(C)(C)C)c1nnc(C)n1-2 [JQ1] | c-Myc suppression (c-Myc): Suppression of c-Myc is evident |
| 13.3% | – | – | – | O=C1CCC(N2Cc3c(CCCCCCCCCCc4cccc5c4CN(C4CCC(=O)NC4=O)C5=O)cccc3C2=O)C(=O)N1 (stereo not shown) [EC2-093, 3,3′-(Decane-1,10-diylbis(1-oxoisoindoline-4,2-diyl))bis(piperidine-2,6-dione)] | Kd (cereblon (CRBN) [2]; [5]): 35.5 ± 47.9 µM |
| 4.91% | 30.5% | – | 18 ± 20% | O=C1CCC(N2C(=O)c3cccc(NC(=O)CCCCCC(=O)Nc4cccc5c4C(=O)N(C4CCC(=O)NC4=O)C5=O)c3C2=O)C(=O)N1 (stereo not shown) [EC1-119, N^1,N^7-bis(2-(2,6-Dioxopiperidin-3-yl)-1,3-dioxoisoindolin-4-yl)heptanediamide] | – |
| 7.19% | 91.2% | 22.1 ± 1.47 µM | 71.6 ± 2% | O=C1CCC(N2Cc3c(NC(=O)CCCCCC(=O)Nc4cccc5c4CN(C4CCC(=O)NC4=O)C5=O)cccc3C2=O)C(=O)N1 (stereo not shown) [EC1-141, N^1,N^7-Bis(2-(2,6-dioxopiperidin-3-yl)-1-oxoisoindolin-4-yl)heptanediamide] | – |
| – | – | – | – | Cc1sc2c(c1C)C(c1ccc(Cl)cc1)=N[C@@H](CC(=O)NCCCCNC(=O)COc1cccc3c1C(=O)N(C1CCC(=O)NC1=O)C3=O)c1nnc(C)n1-2 (stereo partly shown) [dBET1] | BRD4 expression / degradation (BRD4): degrades BRD4; c-Myc suppression (c-Myc): Suppression of c-Myc is evident |
| 59.1% | 108% | 8.21 ± 1.22 µM | 83.88 ± 0.28% | O=C(/C=C/c1cccc2c1CN(C1CCC(=O)NC1=O)C2=O)NCCOCCOCCOCCNC(=O)/C=C/c1cccc2c1CN(C1CCC(=O)NC1=O)C2=O (stereo not shown) [SM3-009, (2E,2′E)-N,N′-(((Oxybis(ethane-2,1-diyl))bis(oxy))bis(ethane-2,1-diyl))bis(3-(2-(2,6-dioxopiperidin-3-yl)-1-oxoisoindolin-4-yl)acrylamide)] | – |
| 25.9% | – | – | – | O=C1CCC(NC(=O)c2cccc(NC(=O)CCCC(=O)Nc3cccc(C(=O)NC4CCC(=O)NC4=O)c3)c2)C(=O)N1 (stereo not shown) [XS01-074, N^1,N^5-Bis(3-((2,6-Dioxopiperidin-3-yl)carbamoyl)phenyl)glutaramide] | Kd (cereblon (CRBN) [2]; [5]): 187 ± 16.2 µM |
| 91.1% | 80.6% | 15 ± 0.97 µM | 72.8 ± 1.38% | O=C(CCc1cccc2c1CN(C1CCC(=O)NC1=O)C2=O)NCCOCCOCCNC(=O)CCc1cccc2c1CN(C1CCC(=O)NC1=O)C2=O (stereo not shown) [SM3-005, N,N′-((Ethane-1,2-diylbis(oxy))bis(ethane-2,1-diyl))bis(3-(2-(2,6-dioxopiperidin-3-yl)-1-oxoisoindolin-4-yl)propanamide)] | – |
| 107% | – | – | – | O=C1CCC(N2Cc3c(OCc4ccc(CN5CCN(Cc6ccc(COc7cccc8c7CN(C7CCC(=O)NC7=O)C8=O)cc6)CC5)cc4)cccc3C2=O)C(=O)N1 (stereo not shown) [EC1-168.MS] | Kd (A) FI/ITC (cereblon (CRBN) [2]; cell does not state FI or ITC): insoluble |
| 0.98% | 61.3% | – | – | O=C1CCC(NC(=O)CCCCCCCCC(=O)NC2CCC(=O)NC2=O)C(=O)N1 (stereo not shown) [XS01-039, N^1,N^10-Bis(2,6-dioxopiperidin-3-yl)decanediamide] | remaining activity at 0.01 µM (CRBN; B2): 92.9%; remaining activity at 10 µM (CRBN; B2): 13.1%; Kd (cereblon (CRBN) [2]; [5]): 161 ± 19.3 µM |
